Non-standard residues stand in square brackets, D forms with d. Residues, ends and D or L forms follow the SMILES beside them. *: point of attachment. Butyryl = CCCC(=O)*
Experiments:
[1] = HPLC retention time as indicator of relative hydrophobicity; type: physicochemical; settings: chromatographic, Kromasil 100 C18 (4.6 mm × 40 mm, 3 μm), linear gradient 2 to 100% B over 12 min, 1 mL/min; A 0.1% aqueous TFA, B 0.1% TFA in CH3CN; used as indicator of relative hydrophobicity
Method: The parameters related to the structure of the peptide conjugates (sequence, charge, hydrophobic ratio [HR], and HPLC retention time), as well as their physicochemical properties (grand average hydropathicity [GRAVY] and hydrophobic moment [<μH>]) obtained from the online programs ProtParam (Expasy server) and HeliQuest are included in Table 1.
Peptides were analyzed under standard analytical HPLC conditions. Method A: peptides were analyzed with a Dionex liquid chromatography instrument composed of a UV/Vis Dionex UVD170U detector, a P680 Dionex pump, an ASI-100 Dionex automatic injector, and Chromeleon 6.60 software. Detection was performed at a wavelength of 220 nm. Solvent A was 0.1% aqueous trifluoroacetic acid (TFA), and solvent B was 0.1% TFA in CH3CN. Analyses were carried out with a Kromasil 100 C18 (4.6 mm × 40 mm, 3 μm) column with a linear gradient of 2 to 100% B over 7 min at a flow rate of 1 mL/min. Method B: peptides were analyzed with a 1260 Infinity II liquid chromatography instrument (Agilent Technologies) composed of a diode array detector HS, a quaternary pump VL, a 1260 vial sampler, and OpenLab CDS ChemStation software. Analyses were carried out with a Kromasil 100 C18 (4.6 mm × 40 mm, 3 μm) column with a linear gradient of 2 to 100% B over 12 min at a flow rate of 1 mL/min.

tobacco leaves = test: Effect of peptide infiltration on tobacco leaves (phytotoxicity); type: in vivo; settings: 100 μL infiltrated into mesophyll, lesion diameter 48 h after infiltration, at least three leaves; ± confidence interval (α = 0.05)
Summary of the method: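 Peptide solutions at 50, 150 and 250 μM were infiltrated into the mesophyll of fully expanded tobacco leaves, with at least three leaves per peptide and dose on different plants. Water and equimolar melittin served as controls. Lesion diameter was measured 48 h after infiltration.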

[2] = test system: Xanthomonas axonopodis pv. vesicatoria 2133-2; settings: TSB, 25°C, 48 h, OD 600 nm (Bioscreen C), three replicates, experiment repeated twice; MIC given as range
Summary of the method: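 Bacteria grown 24 h (48 h for Xanthomonas axonopodis, X. fragariae) at 25°C, suspended at 10^8 CFU mL^−1, mixed with peptide dilutions in TSB.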

[3] = test system: Erwinia amylovora PMV6076; test: In vitro growth inhibition (MIC); type: cell-based; settings: TSB, 25°C, 48 h, OD 600 nm (Bioscreen C), three replicates, experiment repeated twice; MIC = lowest concentration with no growth, given as range
Summary of the method: (§1)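 Bacterial suspensions (10^8 CFU mL^−1, from 24 h plates at 25°C) mixed with peptide dilutions in TSB, triplicate wells. OD600 read hourly over 48 h at 25°C with shaking. MIC = lowest concentration with no growth at end of run.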

[4] = test system: Pseudomonas syringae pv. syringae EPS94; test: In vitro growth inhibition (MIC); type: cell-based; settings: TSB, 25°C, 48 h, OD 600 nm (Bioscreen C), three replicates, experiment repeated twice; MIC given as range
Summary of the method: as §1

[5] = test system: Pseudomonas syringae pv. actinidiae Psa3700.1.1; test: In vitro growth inhibition (MIC); type: cell-based; settings: TSB, 25°C, 48 h, OD 600 nm (Bioscreen C), three replicates, experiment repeated twice; MIC given as range
Summary of the method: as §1

[6] = test system: Xanthomonas fragariae Xf349-9A; test: In vitro growth inhibition (MIC); type: cell-based; settings: TSB, 25°C, 48 h, OD 600 nm (Bioscreen C), three replicates, experiment repeated twice; MIC given as range
Summary of the method: as §1

[7] = test system: Xanthomonas arboricola pv. pruni CFBP5563; test: In vitro growth inhibition (MIC); type: cell-based; settings: TSB, 25°C, 48 h, OD 600 nm (Bioscreen C), three replicates, experiment repeated twice; MIC given as range
Summary of the method: as §1

horse erythrocytes = settings: TRIS buffer pH 7.2, 1 h, 37°C, absorbance 540 nm, relative to melittin 100 μM, ± confidence interval (α = 0.05)
Summary of the method: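 Horse erythrocytes washed in 10 mM Tris, 150 mM NaCl, pH 7.2 were mixed 1:1 with compound solutions at 750, 500, 300 and 100 μM and shaken 1 h at 37°C. Hemoglobin release read at 540 nm in supernatant; % hemolysis relative to buffer and melittin control.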

Compound	tR (min), HPLC retention time (method B) [1] [min]	Size of the lesions in infiltrated tobacco leaves at 50 μM (tobacco leaves) [cm]	Size of the lesions in infiltrated tobacco leaves at 150 μM (tobacco leaves) [cm]	Size of the lesions in infiltrated tobacco leaves at 250 μM (tobacco leaves) [cm]	MIC, Xav [2] [µM]	MIC, Ea [3] [µM]	MIC, Pss [4] [µM]	MIC, Psa [5] [µM]	MIC, Xf [6] [µM]	MIC, Xap [7] [µM]	Percent hemolysis at 50 μM (horse erythrocytes) [%]	Percent hemolysis at 150 μM (horse erythrocytes) [%]	Percent hemolysis at 250 μM (horse erythrocytes) [%]	Percent hemolysis at 375 μM (horse erythrocytes) [%]
H-KKVVFWVKFKFKLFKKILKVL-NH2 [KSLW-BP13]	6.26	0.52 ± 0.13	0.88 ± 0.15	1.07 ± 0.34	3.1 to 6.2	25 to 50	25 to 50	1.6 to 3.1	1.6 to 3.1	1.6 to 3.1	62 ± 8.2	65 ± 5.9	77 ± 12.9	82 ± 10.4
H-FKLFKKILKVLKKVVFWVKFK-NH2 [BP13-KSLW]	7.02	0.56 ± 0.23	1.00 ± 0.25	0.92 ± 0.36	1.6 to 3.1	> 50	12.5 to 25	6.2 to 12.5	1.6 to 3.1	1.6 to 3.1	80 ± 11.2	90 ± 7.3	100 ± 8.4	99 ± 8.4
Ac-KKLfKKILKK(COC3H7)L-RINSAKDDAAGLQIA-OH [BP475-flg15]	6.03	0.43 ± 0.13	1.20 ± 0.23	1.23 ± 0.28	3.1 to 6.2	12.5 to 25	6.2 to 12.5	3.1 to 6.2	25 to 50	1.6 to 3.1	1 ± 1.0	0 ± 0.2	1 ± 0.3	1 ± 0.3
KKLFKKILKKL-RINSAKDDAAGLQIA-OH [BP16-flg15]	4.59	0 ± 0	0.31 ± 0.10	0.30 ± 0.09	3.1 to 6.2	> 50	12.5 to 25	12.5 to 25	12.5 to 25	25 to 50	0 ± 0.3	1 ± 0.1	0 ± 0.6	1 ± 0.5
Ac-KKLFKKIK(COC3H7)KYL-RINSAKDDAAGLQIA-OH [BP387-flg15]	5.84	0.23 ± 0.24	0.33 ± 0.35	0.93 ± 0.40	3.1 to 6.2	25 to 50	3.1 to 6.2	6.2 to 12.5	6.2 to 12.5	1.6 to 3.1	3 ± 0.3	5 ± 0.9	7 ± 0.2	9 ± 2.5
KKLFKKILKYL-RINSAKDDAAGLQIA-OH [BP100-flg15]	4.96	0.10 ± 0.12	0.28 ± 0.14	0.36 ± 0.13	3.1 to 6.2	6.2 to 12.5	3.1 to 6.2	1.6 to 3.1	6.2 to 12.5	1.6 to 3.1	1 ± 0.9	1 ± 0.8	3 ± 0.0	6 ± 1.6
CCCC(=O)NCCCC[C@H](NC(=O)[C@H](CCCCN)NC(=O)[C@H](CC(C)C)NC(=O)[C@@H](NC(=O)[C@H](CCCCN)NC(=O)[C@H](CCCCN)NC(=O)[C@@H](Cc1ccccc1)NC(=O)[C@H](CC(C)C)NC(=O)[C@H](CCCCN)NC(=O)[C@H](CCCCN)NC(C)=O)[C@@H](C)CC)C(=O)N[C@@H](CC(C)C)C(=O)N[C@@H](Cc1ccc(O)cc1)C(=O)NCC(=O)N[C@H](C(=O)N[C@@H](Cc1c[nH]cn1)C(=O)N[C@H](C(=O)N[C@@H](Cc1c[nH]cn1)C(N)=O)[C@@H](C)O)[C@@H](C)CC [BP475-PIP1] (Ac-KKL[dF]KKILKK(Butyryl)LYGIHTH-NH2)	6.28	0.47 ± 0.06	1.40 ± 0.00	1.67 ± 0.13	3.1 to 6.2	3.1 to 6.2	6.2 to 12.5	1.6 to 3.1	1.6 to 3.1	0.8 to 1.6	9 ± 1.0	18 ± 1.4	26 ± 2.8	39 ± 2.0

From publication PMC9238401, “Peptide Conjugates Derived from flg15, Pep13, and PIP1 That Are Active against Plant-Pathogenic Bacteria and Trigger Plant Defense Responses” (Applied and Environmental Microbiology, 2022)
